The record followed here is US10954214B2 (Janssen Pharmaceutica NV, priority 2016, dated 2021).

Test [1] concerns the target full-length MALT1 protein (Strep-MALT1(1-824)-His) (Homo sapiens (Human), UniProt Q9UDY8). Description: MALT1 Biochemical Protease Assay (Ac-LRSR-AMC substrate). The settings on record: 10 nM FL MALT1, 200 μM Ac-LRSR-AMC, 4 h at RT; read-out: MALT1_Biochemical activity (Ac-LRSR-amc) IC50. In a few lines:
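Fluorescence from AMC release off the quenched LRSR substrate was read after a 4 h reaction at RT. Values were normalised to no-enzyme and uninhibited controls and fitted for IC50 and Hill coefficient.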

Test [2] concerns IL6 secretion by OCI-LY3 ABC-DLBCL cells. Description: Human IL6 Mesoscale assay (OCI-LY3). It is filed as cell-based. As to conditions: Homo sapiens, 24 h. On the procedure:
(§1) NFKB signaling regulates the secretion of multiple cytokines, including IL6 and IL10. Secretion of the cytokines IL6 and IL10 by TMD8 or OCI-LY3 ABC-DLBCL cells was measured using a mesoscale assay. Inhibition of NFKB signaling by MALT1 or BTK inhibitors results in a decrease of IL6/10 secretion.
(§2) TMD8 or OCI-LY3 cells were propagated in RPMI-1640 (Sigma Aldrich) supplemented with 10% fetal bovine serum (HyClone), 1 mM sodium pyruvate (Invitrogen), 2 mM L-glutamine (Sigma Aldrich) and 1% PenStrep (Sigma Aldrich). Cell passage number should not exceed 30. Cells should be kept between 0.5-2.5 million cells per mL during culturing and cells should be supplemented every 2-3 days with fresh 50 μM beta-mercaptoenthanol. No beta-mercaptoethanol was used during the mesoscale assay.
(§3) For the Mesoscale assay, 100,000 TMD8 or OCI-LY3 cells were seeded per well into black-colored 96-well plates with clear bottom (Corning #3904) and test compounds were added in 9 dilution steps (1:2) ranging from 15 μM to 58.6 nM (final DMSO concentration 0.3%). DMSO control wells were used to determine the maximum signal (High Control (HC)). Treatment with the BTK inhibitor RN486 in a dose range from 30 nM to 131 pM (9 dilutions of 1:2) served as a positive control for NFKB pathway inhibition and was used to determine the maximum inhibition (Low Control (LC)). Compounds and cells were incubated for 24 h at 37° C. and 5% CO2 (assay volume is 150 μL). After 24 h of incubation 50 μL of the supernatant was transferred to a MSD plate (V-Plex Proinflammation Panel 1 (human) kit, Mesoscale (MSD)) and incubated for 2 h with vigorous shaking (600 rpm) at room temperature. Following incubation, plates were washed 3× with PBS+0.05% Tween-20 and 25 μL detection antibody solution (IL6 & IL10 antibodies in diluent 3 (MSD)) was added per well followed by 2 h of incubation with vigorous shaking (600 rpm) at room temperature. After 3× washes with PBS+0.05% Tween-20, plates were incubated with 150 μL 2× Read Buffer T and read on SECTOR imager.

The test system of test [3] is IL10 secretion by OCI-LY3 ABC-DLBCL cells. Description: Human IL10 Mesoscale assay (OCI-LY3). As to conditions: Homo sapiens, 24 h. Type of test: cell-based. The method, then: as §1, §2, §3

Sequence of full-length MALT1 protein (Strep-MALT1(1-824)-His) (Q9UDY8 whole entry): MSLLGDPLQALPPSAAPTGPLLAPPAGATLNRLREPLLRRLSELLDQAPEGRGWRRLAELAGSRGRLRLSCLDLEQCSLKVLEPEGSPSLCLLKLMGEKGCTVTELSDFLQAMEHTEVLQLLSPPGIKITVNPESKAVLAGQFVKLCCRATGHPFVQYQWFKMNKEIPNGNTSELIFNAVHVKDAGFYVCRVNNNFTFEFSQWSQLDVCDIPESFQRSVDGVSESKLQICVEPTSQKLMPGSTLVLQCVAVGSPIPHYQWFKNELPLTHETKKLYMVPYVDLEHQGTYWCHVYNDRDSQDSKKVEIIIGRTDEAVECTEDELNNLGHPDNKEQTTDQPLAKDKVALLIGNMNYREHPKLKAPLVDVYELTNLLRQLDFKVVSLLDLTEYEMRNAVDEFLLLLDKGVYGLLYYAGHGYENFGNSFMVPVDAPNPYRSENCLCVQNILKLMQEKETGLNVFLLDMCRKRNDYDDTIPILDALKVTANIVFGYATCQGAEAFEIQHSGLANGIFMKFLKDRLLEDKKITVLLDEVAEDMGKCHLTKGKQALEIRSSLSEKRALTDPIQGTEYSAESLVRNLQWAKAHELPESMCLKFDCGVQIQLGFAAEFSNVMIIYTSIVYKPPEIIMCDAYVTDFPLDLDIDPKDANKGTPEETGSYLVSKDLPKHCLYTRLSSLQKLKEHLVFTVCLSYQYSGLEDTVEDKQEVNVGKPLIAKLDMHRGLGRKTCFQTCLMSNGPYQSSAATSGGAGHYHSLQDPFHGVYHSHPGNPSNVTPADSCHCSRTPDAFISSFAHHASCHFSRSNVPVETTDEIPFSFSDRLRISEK

On to `Cn1ccc(-c2ncc(NC(=O)c3cnn(-c4ccc(F)c5ncccc45)c3C(F)(F)F)cc2Cl)n1` [Cpd 273, N-(5-chloro-6-(1-methyl-1H-pyrazol-3-yl)pyridin-3-yl)-1-(8-fluoroquinolin-5-yl)-5-(trifluoromethyl)-1H-pyrazole-4-carboxamide], for which the results for the IC50 in test [1], in test [2] and in test [3] were 145 nM, 85 nM and 66 nM, respectively.
With `N#Cc1cc(NC(=O)c2cnn(-c3cccc4ncnn34)c2C(F)(F)F)cnc1-n1nccn1` [Cpd 274, 1-([1,2,4]triazolo[1,5-a]pyridin-5-yl)-N-(5-cyano-6-(2H-1,2,3-triazol-2-yl)pyridin-3-yl)-5-(trifluoromethyl)-1H-pyrazole-4-carboxamide], the IC50 turned out to be 141 nM in test [1], 2750 nM in test [2] and 3160 nM in test [3].
Consider `N#Cc1cc(NC(=O)c2cnn(-c3ccnc4cnccc34)c2C(F)(F)F)cnc1-n1nccn1` [Cpd 276, N-(5-cyano-6-(2H-1,2,3-triazol-2-yl)pyridin-3-yl)-1-(1,7-naphthyridin-4-yl)-5-(trifluoromethyl)-1H-pyrazole-4-carboxamide], for which the IC50 was 138 nM in test [1], 186 nM in test [2] and 117 nM in test [3].
The corresponding values for `Nc1nc2cccc(-n3ncc(C(=O)Nc4cnc(-n5nccn5)c(Cl)c4)c3C(F)(F)F)c2s1` [Cpd 278, 1-(2-aminobenzo[d]thiazol-7-yl)-N-(5-chloro-6-(2H-1,2,3-triazol-2-yl)pyridin-3-yl)-5-(trifluoromethyl)-1H-pyrazole-4-carboxamide] are 129 nM, 141 nM and 219 nM.
For `N#Cc1cc(NC(=O)c2cnn(-c3cccc4nc(N)sc34)c2C(F)(F)F)cnc1-n1nccn1` [Cpd 282, 1-(2-aminobenzo[d]thiazol-7-yl)-N-(5-cyano-6-(2H-1,2,3-triazol-2-yl)pyridin-3-yl)-5-(trifluoromethyl)-1H-pyrazole-4-carboxamide] the same measures were 123 nM, 741 nM and 417 nM.
Turning to `O=C(Nc1cnc(-n2ccnn2)c(C(F)(F)F)c1)c1cnn(-c2cccc3ncccc23)c1C(F)(F)F` [Cpd 283, N-(6-(1H-1,2,3-triazol-1-yl)-5-(trifluoromethyl)pyridin-3-yl)-1-(quinolin-5-yl)-5-(trifluoromethyl)-1H-pyrazole-4-carboxamide], the IC50 is 123 nM in test [1], 851 nM in test [2] and 550 nM in test [3].
The corresponding values for `O=C(Nc1cnc(-n2nccn2)c(Cl)c1)c1cnn(-c2noc3ccccc23)c1C(F)(F)F` [Cpd 284, 1-(benzo[d]isoxazol-3-yl)-N-(5-chloro-6-(2H-1,2,3-triazol-2-yl)pyridin-3-yl)-5-(trifluoromethyl)-1H-pyrazole-4-carboxamide] are 120 nM, 589 nM and 724 nM.
For `O=C(Nc1cnc(-n2nccn2)c(Cl)c1)c1cnn(-c2cnc(Cl)c3ccccc23)c1C(F)(F)F` [Cpd 285, N-(5-chloro-6-(2H-1,2,3-triazol-2-yl)pyridin-3-yl)-1-(1-chloroisoquinolin-4-yl)-5-(trifluoromethyl)-1H-pyrazole-4-carboxamide] the same measures were 112 nM, 229 nM and 204 nM.
For `N#Cc1cc(NC(=O)c2cnn(-c3cccc4cn[nH]c34)c2C(F)(F)F)cnc1-n1nccn1` [Cpd 286, N-(5-cyano-6-(2H-1,2,3-triazol-2-yl)pyridin-3-yl)-1-(1H-indazol-7-yl)-5-(trifluoromethyl)-1H-pyrazole-4-carboxamide] the same measures were 110 nM, 200 nM and 200 nM.
Turning to `O=C(Nc1cnc(-n2ccnn2)c(Br)c1)c1cnn(-c2cccc3ncccc23)c1C(F)(F)F` [Cpd 287, N-(5-bromo-6-(1H-1,2,3-triazol-1-yl)pyridin-3-yl)-1-(quinolin-5-yl)-5-(trifluoromethyl)-1H-pyrazole-4-carboxamide], the IC50 in test [1] turned out to be 95 nM; in test [2], 229 nM; in test [3], 234 nM.
The corresponding values for `O=C(Nc1cnc(-c2ncco2)c(Cl)c1)c1cnn(-c2ccc(F)c3ncccc23)c1C(F)(F)F` [Cpd 288, N-(5-chloro-6-(oxazol-2-yl)pyridin-3-yl)-1-(8-fluoroquinolin-5-yl)-5-(trifluoromethyl)-1H-pyrazole-4-carboxamide] are 95 nM, 251 nM and 91 nM.
The corresponding values for `N#Cc1cc(NC(=O)c2cnn(-c3cnc(F)c4ccccc34)c2C(F)(F)F)cnc1-n1nccn1` [Cpd 289, N-(5-cyano-6-(2H-1,2,3-triazol-2-yl)pyridin-3-yl)-1-(1-fluoroisoquinolin-4-yl)-5-(trifluoromethyl)-1H-pyrazole-4-carboxamide] are 91 nM, 132 nM and 123 nM.
On to `O=C(Nc1cnc(-n2nccn2)c(Cl)c1)c1cnn(-c2nsc3ccccc23)c1C(F)(F)F` [Cpd 290, 1-(benzo[d]isothiazol-3-yl)-N-(5-chloro-6-(2H-1,2,3-triazol-2-yl)pyridin-3-yl)-5-(trifluoromethyl)-1H-pyrazole-4-carboxamide], for which the values for the IC50 in test [1], in test [2] and in test [3] were 81 nM, 186 nM and 110 nM, respectively.
Take `N#Cc1cc(NC(=O)c2cnn(-c3cccc4nc(F)ccc34)c2C(F)(F)F)cnc1-n1nccn1` [Cpd 291, N-(5-cyano-6-(2H-1,2,3-triazol-2-yl)pyridin-3-yl)-1-(2-fluoroquinolin-5-yl)-5-(trifluoromethyl)-1H-pyrazole-4-carboxamide]: the IC50 in test [1] is 81 nM; in test [2], 110 nM; in test [3], 100 nM.
For `N#Cc1cc(NC(=O)c2cnn(-c3ncnc4occc34)c2C(F)(F)F)cnc1-n1nccn1` [Cpd 292, N-(5-cyano-6-(2H-1,2,3-triazol-2-yl)pyridin-3-yl)-1-(furo[2,3-d]pyrimidin-4-yl)-5-(trifluoromethyl)-1H-pyrazole-4-carboxamide], the IC50 in test [1] was 79 nM; in test [2], 151 nM; in test [3], 115 nM.
For `Cn1ccc(-c2ncc(NC(=O)c3cnn(-c4cccc5nnsc45)c3C(F)(F)F)cc2Cl)n1` [Cpd 293, 1-(benzo[d][1,2,3]thiadiazol-7-yl)-N-(5-chloro-6-(1-methyl-1H-pyrazol-3-yl)pyridin-3-yl)-5-(trifluoromethyl)-1H-pyrazole-4-carboxamide] the same measures were 76 nM, 447 nM and 251 nM.
For `N#Cc1cc(NC(=O)c2cnn(-c3ncnc4scnc34)c2C(F)(F)F)cnc1-n1nccn1` [Cpd 294, N-(5-cyano-6-(2H-1,2,3-triazol-2-yl)pyridin-3-yl)-1-(thiazolo[5,4-d]pyrimidin-7-yl)-5-(trifluoromethyl)-1H-pyrazole-4-carboxamide] the same measures were 76 nM, 1580 nM and 871 nM.
For `Cc1nc2ccccn2c1-n1ncc(C(=O)Nc2cnc(-n3nccn3)c(C#N)c2)c1C(F)(F)F` [Cpd 295, N-(5-cyano-6-(2H-1,2,3-triazol-2-yl)pyridin-3-yl)-1-(2-methylimidazo[1,2-a]pyridin-3-yl)-5-(trifluoromethyl)-1H-pyrazole-4-carboxamide] the same measures were 74 nM, 1260 nM and 724 nM.
With `N#Cc1cc(NC(=O)c2cnn(-c3ncnc4ccccc34)c2C(F)(F)F)cnc1-n1nccn1` [Cpd 296, N-(5-cyano-6-(2H-1,2,3-triazol-2-yl)pyridin-3-yl)-1-(quinazolin-4-yl)-5-(trifluoromethyl)-1H-pyrazole-4-carboxamide], the half-inhibitory concentration (IC50) in test [1] is 72 nM; in test [2] it was 182 nM; in test [3], 69 nM.
The corresponding values for `Cc1nc(-n2nccn2)c(C#N)cc1NC(=O)c1cnn(-c2cccc3scnc23)c1C(F)(F)F` [Cpd 297, 1-(benzo[d]thiazol-4-yl)-N-(5-cyano-2-methyl-6-(2H-1,2,3-triazol-2-yl)pyridin-3-yl)-5-(trifluoromethyl)-1H-pyrazole-4-carboxamide] are 251 nM, 135 nM and 115 nM.
